“Also recorded” adds a separate entry of the source.
Legend:
[1] = tested on: Human brain microvascular endothelial cells (arterial); experiment: Cell growth (cell count) of artery endothelial cells after Aβ stimulation; type: cell-based; settings: for Cell count (relative to control as 100): Artery endothelial cells
Procedure: (§1) Human brain microvascular endothelial cells (HBMEC), human umbilical artery endothelial cells (HUAEC), human umbilical vein endothelial cells (HUVEC) and human aortic smooth muscle cells (HSMC) were obtained from Applied Cell Biology Research Institute. The cells were cultured using a modified MCDB131 medium supplemented with 2% or 10% FBS; those subcultured over 3 to 6 passages were used in the experiments described below.
(§2) Human brain microvascular endothelial cells (arterial and venous) cultured in a 12-well plate by the above-described method were stimulated with Aβ1-40 (0.05 μM, 0.5 μM and 5 μM), Aβ1-42 (0.5 μM), Aβ40-1 (0.5 μM), and control (no Aβ derivative added) for 72 hours. Aβ40-1 has the sequence reverse to that of Aβ1-40. This was used as the control peptide. Next, the number of cells was counted manually using a hemocytometer.

[2] = tested on: Human brain microvascular endothelial cells (venous); experiment: Cell growth (cell count) of venous endothelial cells after Aβ stimulation; type: cell-based; settings: 72 hours
Procedure: as §1, §2

[3] = tested on: c57/BL6J mice; experiment: Matrigel plug transplant assay; type: in vivo, mouse
Procedure: Age-matched male c57/BL6J mice at 8 weeks of age were given 500 μL of Matrigel comprising 50 ng/mL VEGF and Aβ1-40 (5 μM), and 37 units of heparin by subcutaneous injection. Seven days later, the Matrigel plug was carefully recovered from each mouse, washed with phosphate-buffered saline (PBS) three times, and stored under freezing at −20° C. A section ([…]) of the frozen plug was fixed in ice-cooled acetone, and then stained with rat anti-mouse CD31 primary antibody (Pharmingen), FITC-conjugated anti-α smooth muscle actin antibody (Sigma) and Alexa-conjugated goat anti-rat secondary antibody (Molecular Probe).
Blood vessel density in the stained section was evaluated by fluorescence intensity using the NIH image software. The hemoglobin content in each plug was measured as an index of adult vascular regeneration.

[4] = tested on: low-density monocytes from the spleen of a C57BL/6J mouse; experiment: Adult vascular stem cell differentiation assay; type: cell-based; settings: Dil-acetylated LDL and BS-1 double staining; 4 days of cultivation
Procedure: Briefly, low-density monocytes were isolated from the spleen of a C57BL/6J mouse by a density centrifugation method using Histopaque-1083 (Sigma, St. Louis, Mo.). The cells were seeded onto a 4-well glass slide (Nunc International) coated with rat vitronectin (Sigma), and cultured in a medium comprising 2% heat inactivated defined FBS. The medium was supplemented with the endothelial growth supplementation kit, EGM-2MV single aliquot (Clonetics).
After 4 days of cultivation, the cells were incubated with the addition of acetylated LDL (Biomedical Technologies, Stoughton, Mass.), and stained with FITC-conjugated Griffonia simplicifolia lectin I (BS1-lectin) (Vector Laboratories). In 15 fields of vision at 40× magnification, the number of cells double stained with acLDL-Dil and BS1 was counted for each sample as endothelial precursors.

[5] = tested on: endothelial cells; experiment: Endothelial cell migration, Boyden chamber assay; type: cell-based, human; settings: VEGF 10 ng/ml; for Effect on endothelial migration: Boyden chamber
Procedure: as §1
Next, endothelial cell migration was examined using Boyden chamber assay. Briefly, an EBM-2 medium comprising VEGF (10 ng/ml), Aβ1-40 (0.5 μM and 5 μM)+VEGF (10 ng/ml), Aβ40-1 (0.5 μM)+VEGF (10 ng/ml), 10% FBS or control (no Aβ derivative added) was placed in the lower section of a chamber. 5×10^4 endothelial cells (in 50 μL of EBM-2 supplemented with 0.5% bovine serum albumin) were seeded into the upper section of the chamber. Cell migration was measured by counting the cells in four highly magnified fields of vision (×40). Three experiments were performed for each group. (mean ±standard deviation: P<0.05)
The unit of measurement is in cell count/field of vision.

[6] = tested on: Human umbilical artery endothelial cells; experiment: EC vessel formation on Matrigel, artery endothelial cells; type: cell-based; settings: for Full-length of cells on Matrigel, Mean value: Artery endothelial cells, 72 hours stimulation, 18 hours on Matrigel
Procedure: as §1
(§3) Human umbilical artery endothelial cells and human umbilical vein endothelial cells were stimulated with Aβ1-40 (0.5 μM and 5 μM), Aβ40-1 (0.5 μM), and control (no Aβ derivative added) for 72 hours; after reaching an 80% confluence, endothelial cells were then washed with PBS, trypsinated, and cultured on a 6-well culture plate coated with Matrigel basal membrane matrix (Becton Dickinson Labware) for 18 hours. The cells on the Matrigel were photographed, and the full-length was measured using an NIH image analyzer.
(§4) The unit of measurement is in pixel.

[7] = tested on: human umbilical vein endothelial cells; experiment: EC vessel formation on Matrigel, vein endothelial cells; type: cell-based; settings: 72 hours stimulation, 18 hours on Matrigel
Procedure: as §1, §3, §4

[8] = tested on: Human SMC; experiment: ELISA assay of VEGF level in SMC culture; type: cell-based; settings: 48 hours after stimulation
Procedure: as §1
Human SMC was cultured in a 12-well culture plate of an MCDB medium comprising 10% FBS. 48 hours after Aβ1-40 stimulation, the VEGF level in each well was tested by enzyme immunoassay (R&D System).

[9] = tested on: ERK; experiment: Western blot assay, ERK phosphorylation; type: cell-based, human; settings: VEGF 10 ng/mL, Aβ1-40 0.5 μM, up to 40 minutes
Procedure: (§5) After the EC reached an 80% confluence, the medium was exchanged with an FBS-free fresh medium, and the EC was allowed to stand for 4 hours. Next, the cells were stimulated with human VEGF (10 ng/mL) and Aβ1-40 (0.5 μM) for up to 40 minutes. Total cell protein extract from human endothelial cells was separated on 12.5% SDS-polyacrylamide gel, and transferred to a nitrocellulose membrane. The membrane was subjected to Western blotting using antibodies against human Akt, phosphorylated Akt and phosphorylated ERK (Cell Signaling).

[10] = tested on: Akt; experiment: Western blot assay, Akt phosphorylation; type: cell-based, human; settings: VEGF 10 ng/mL, Aβ1-40 0.5 μM, up to 40 minutes
Procedure: as §5

[11] = Matrigel plug with 50 ng/mL VEGF and Aβ1-40 (5 μM), subcutaneous, seven days

Aβ1-42: β-amyloid species longer than Aβ1-40 by two residues on the C-terminal side
Toxic effect on endothelial cells (necrotized cells observed) ([1]; 0.5 μM, 72 hours, FIG. 2): toxic effect on endothelial cells

β-amyloid 1-40 [Aβ1-40]
Cell count (relative to control as 100) ([2]; 0.05 μm): 80 ± 18.987 | Cell count (relative to control as 100) ([2]; 0.5 μm): 73 ± 11.392 | Cell count (relative to control as 100) ([2]; 5 μm): 70 ± 5.968 | Blood vessel density, Mean value [3, 11]: 825.800 pixel | Hemoglobin content, Mean value [3, 11]: 0.084 OD 450/tissue mg | Effect on adult vascular regeneration in vivo ([3]; Matrigel plug, mice): suppressive effect on adult vascular regeneration in vivo | Effect on growth and differentiation of vascular stem/precursor cells [4]: inhibitory effect on the differentiation of vascular stem cells; also recorded: suppressed the growth and differentiation of the cultured vascular precursor cells | Effect on endothelial migration [5]: the effect was inhibited | Full-length of cells on Matrigel, Mean value ([6]; 0.5 μm): 8719.333 pixel | Full-length of cells on Matrigel, Mean value ([6]; 5 μm): 7951.167 pixel | Effect on EC vessel formation on Matrigel ([6]; text statement for Tables 2 and 3): suppressed EC vessel formation on Matrigel | Full-length of cells on Matrigel, Mean value ([7]; 0.5 μm): 10599.000 pixel | Full-length of cells on Matrigel, Mean value ([7]; 5 μm): 9884.333 pixel | Effect on VEGF secretion from VSMC [8]: no direct effect on VEGF secretion from VSMC | VEGF level, Mean value ([8]; DSF, enzyme immunoassay): 0.080 | Cell count (relative to control as 100) ([1]; 0.05 μm, 72 hours): 78 ± 9.481 | Cell count (relative to control as 100) ([1]; 0.5 μm, 72 hours): 75 ± 8.011 | Cell count (relative to control as 100) ([1]; 5 μm, 72 hours): 73 ± 11.699 | Effect on growth of human brain microvascular endothelial cells ([1]; text statement for arterial and venous cells, more conspicuous in arteries): suppressed the growth of human brain microvascular endothelial cells | ERK phosphorylation caused by VEGF [9]: no effect on the ERK phosphorylation caused by VEGF | Intracellular Akt phosphorylation [10]: inhibited

vascular endothelial growth factor [VEGF]
Effect on endothelial migration [5]: endothelial migration was caused by vasculogenesis by VEGF | Cell migration, Mean value ([5]; substance in lower section of chamber, Aβ1-40 0.5 μM and 5 μM, Aβ40-1 0.5 μM): 100.018 cell count/field of vision | Intracellular Akt phosphorylation [10]: stimulated
